In PMC7413516, “Antidepressant-like activity and safety profile evaluation of 1H-imidazo[2,1-f]purine-2,4(3H,8H)-dione derivatives as 5-HT1A receptor partial agonists” (PLoS ONE, 2020):
Where two headings read alike, the source gives them in different places.

Experiment: Pharmacokinetic study in mice, plasma and brain structures, LC/MS/MS
Assay type: in vivo, Swiss albino mice
Conditions: Swiss albino, mouse, ip, 1.25 mg/kg i.p.
Protocol: Blood samples from the Swiss albino mice were collected at 0 (pre-dose), 5, 15, 30, 60, 120, 240 and 480 min after a compound administration. The blood samples and brain structures were collected under general anesthesia induced by i.p. injection of 50 mg/kg ketamine plus 8 mg/kg xylazine. The blood samples were taken into heparinized tubes, immediately centrifuged at 1000 × g for 10 min, and plasma was collected. The plasma samples and brain structures were immediately frozen at -30°C and -80°C, respectively.
The plasma and tissue sample pretreatment procedure involved acetonitrile precipitation. A 5 μL aliquot of the IS working solution (100 ng/mL) was added to 50 μL of the collected mouse plasma sample, which was then vortex-mixed for 10 seconds. Thereafter, 200 μL of acetonitrile was added, vortexed during 20 min, and then centrifuged (1000 × g, 10 min). The supernatant (100 μL) was then transferred to insert placed in an autosampler vial, and a 10 μL volume of this was injected onto the HPLC column. Tissue samples were thawed before use, and whole hippocampus, striatum and frontal cortex were weighted and placed in a glass mortar and pestle tissue grinder and homogenized with an appropriate amount of phosphate buffer (pH 7.4) in 1:5 ratio. Afterward, 50 μL of tissue homogenates were transferred to new Eppendorf tubes and spiked with 5 μL of the internal standard working solution. All samples were stored on ice during the preparation process. This was followed by procedures like those described above.
The LC/ESI-MS/MS experiments were performed on an Applied Biosystems/MDS Sciex (Concord, Ontario, Canada) API 2000 triple quadrupole mass spectrometer equipped with an electrospray (ESI) ionization interface. This instrument was coupled to an Agilent 1100 (Agilent Technologies, Waldbronn, Germany) LC system. Data acquisition and processing were accomplished using Sciex Analyst 1.4.2 data collection and integration software.
An XBridge C18 (2.1 x 30 mm, 3.5 μm) analytical column (Waters, Milford, Massachusetts, USA) was used for compound separation. The temperatures of the column thermostat and the autosampler were set at 25°C and 10°C, respectively. The mobile phase consisted of a mixture of acetonitrile with addition of 0.1% formic acid (solvent A) and water with addition of 0.1% formic acid (solvent B) and was set at a flow rate of 0.6 mL/min. Starting amount of solvent A is 10%, isocratic elution from 0 to 3 min, and then gradient up to 90% of solvent A, and maintained to 10 min, and then gradient down to 10% of solvent A, and maintained to 15 min.
The ion source parameters were as follows: ion spray voltage: 5500 V; nebulizer gas (gas 1): 20 psi; turbo gas (gas 2): 25 psi; temperature of the heated nebulizer: 400°C; curtain gas: 40 psi; collision gas: 6 psi. Mass spectra were acquired by SRM with precursor/predominant product ion transitions for each analyte. The mass spectral Q1→Q3 transitions monitored for AZ-853, AZ-861 and for IS (nebivolol), were m/z 453.9→235.1; 504.3→285.1 and 406.2→151.1, respectively. The peak widths of precursor and product ions were set to 0.7 full width half-height. Quantification was done via peak area ratio.
Pharmacokinetic parameters were calculated by a non-compartmental approach from the average concentration values, using Phoenix WinNonlin software (Certara, Princeton, NJ 08540 USA). First order elimination rate constant (λz) was calculated by linear regression of time versus log concentration. Next, the area under the mean serum and tissue concentration versus time curve (AUC0→t) was estimated using the log-linear trapezoidal rule (1), where Ci is the plasma concentration measured at t1.
AUC0→t=∑i=1n((Ci+Ci+1)/2)∙(ti+1−ti). (1)
Area under the first-moment curve (AUMC0→t) was estimated by calculation of the total area under the first-moment curve using the Eq (2), where Ci is the plasma concentration measured at t1. AUMC0→t=∑i=1n((ti∙Ci+ti+1∙Ci+1)/2)∙(ti+1−ti). […]

[1] = hippocampus, 1.25 mg/kg, read-out: Concentration, hippocampus (individual animals)
[2] = hippocampus, 1.25 mg/kg, read-out: Concentration, hippocampus (Mean)
[3] = plasma, 1.25 mg/kg, read-out: Concentration, plasma (Mean)
[4] = plasma, 1.25 mg/kg, read-out: Concentration, plasma (individual animals)
[5] = striatum, 1.25 mg/kg, read-out: Concentration, striatum (Mean)
[6] = striatum, 1.25 mg/kg, read-out: Concentration, striatum (individual animals)

SMILES: Cn1c(=O)c2c(nc3n(CCCCN4CCN(c5cccc(C(F)(F)F)c5)CC4)ccn23)n(C)c1=O [AZ-861, 1,3-dimethyl-8-(4-(4-(3-(trifluoromethyl)phenyl)piperazin-1-yl)butyl)-1H-imidazo[2,1-f]purine-2,4(3H,8H)-dione]
- concentration at 5 min [1]: 289 ng/mL
- concentration at 15 min [2]: 307 ng/mL
- concentration at 15 min [1]: 264 ng/mL
- concentration at 30 min [2]: 253 ng/mL
- concentration at 30 min [1]: 245 ng/mL
- concentration at 60 min [2]: 96.9 ng/mL
- concentration at 60 min [1]: 101 ng/mL
- concentration at 120 min [2]: 54.3 ng/mL
- concentration at 120 min [1]: 60.2 ng/mL
- concentration at 240 min [2]: 19.6 ng/mL
- concentration at 240 min [1]: 18.2 ng/mL
- concentration at 480 min [2]: 15.8 ng/mL
- concentration at 480 min [1]: 15.8 ng/mL
- Cmax (hippocampus, 1.25 mg/kg, read-out: Cmax, hippocampus): 308 ng/g
- Tmax (hippocampus, 1.25 mg/kg, read-out: tmax, hippocampus (converted)): 15 min
- CL/F (plasma): 590 mL/min/kg
- AUC(0-t) (plasma, read-out: AUC0→t, plasma (converted)): 34.5 ng·h/mL
- MRT (plasma, read-out: MRT, plasma (converted)): 52.3 min
- concentration at 5 min [3]: 59.8 ng/mL
- concentration at 15 min [3]: 36.3 ng/mL
- concentration at 15 min [4]: 26.4 ng/mL
- concentration at 30 min [3]: 24.8 ng/mL
- concentration at 60 min [3]: 5.84 ng/mL
- concentration at 60 min [4]: 7.37 ng/mL
- concentration at 120 min [3]: 2.58 ng/mL
- concentration at 120 min [4]: 1.84 ng/mL
- concentration at 240 min [3]: 0.56 ng/mL
- concentration at 480 min [3]: 0.27 ng/mL
- concentration at 480 min [4]: 0.25 ng/mL
- Vd/F (plasma, 1.25 mg/kg, plasma, read-out: Vd/F): > 84 L/kg
- Cmax (plasma, 1.25 mg/kg, read-out: Cmax, plasma): 59.6 ng/mL
- Tmax (plasma, 1.25 mg/kg, read-out: tmax, plasma): ≤ 5 min
- Kp (striatum, ratio of AUC values, read-out: Brain structure-to-plasma concentration ratio, striatum (S/P)): 8.97
- AUC(0-t) (striatum, read-out: AUC0→t, striatum (converted)): 309 ng·h/mL
- MRT (striatum, read-out: MRT, striatum (converted)): 56.9 min
- concentration at 5 min [5]: 181 ng/mL
- concentration at 5 min [6]: 190 ng/mL
- concentration at 15 min [5]: 334 ng/mL
- concentration at 15 min [6]: 377 ng/mL
- concentration at 30 min [5]: 305 ng/mL
- concentration at 30 min [6]: 341 ng/mL
- concentration at 60 min [5]: 58.1 ng/mL
- concentration at 60 min [6]: 61.6 ng/mL
- concentration at 120 min [5]: 25.6 ng/mL
- concentration at 120 min [6]: 28.4 ng/mL
- concentration at 240 min [5]: 5.89 ng/mL
- concentration at 240 min [6]: 6.95 ng/mL
- concentration at 480 min [5]: 1.86 ng/mL
- concentration at 480 min [6]: 1.65 ng/mL
- Cmax (striatum, 1.25 mg/kg, read-out: Cmax, striatum): 333 ng/g
- Tmax (striatum, 1.25 mg/kg, read-out: tmax, striatum (converted)): 15 min
